Tests used:
[1] = tested on: Chinese hamster V79 lung fibroblasts; experiment: Cytotoxicity of the agents alone to V79 cells, clonogenic assay; conditions: no radiation
Protocol: (§1) Chinese hamster V79 lung fibroblasts were cultured in F12 medium supplemented with 10% fetal calf serum and antibiotics. […] The assay system was specifically designed to evaluate radiation sensitivity of cells exposed to radiation under both aerobic and hypoxic conditions (Mitchell et al., Radiat. Res., 96, 422-428 (1983); Russo et al., Radiat. Res., 103, 232-239 (1985); and DeGraff et al., Int. J. Radiat. Oncol. Biol. Phys., 16, 1021-1024 (1989)).
(§2) When cultured cells were exposed to DEA/NO in subsequent examples, DEA/NO in F12 medium with 10 mM HEPES buffer, pH 7.0, was used. […] Control cells in subsequent examples were exposed to 0.02N NaOH, instead of DEA/NO.
Radiation survival curves for V79 cells exposed to varying concentrations of DEA/NO and various DEA/NO decomposition products under hypoxic conditions (metabolic hypoxia induction) are shown in FIG. 1A, which is a graph of the surviving fraction versus dose (Gy). Lines in FIG. 1A represent control (.circle-solid.) and 0.1 mM (Δ), 0.5 mM (.largecircle.), 1.0 mM (.quadrature.), and 2.0 mM (.box-solid.) DEA/NO. Survival curves were corrected for drug cytotoxicity as appropriate.
DEA/NO (2.0 mM) was allowed to decompose to liberate NO in medium maintained at 37° C. overnight in a flask open to the air for use as an additional control. The medium containing the DEA/NO decomposition products was then used to evaluate possible effects on radiosensitization.

[2] = tested on: Chinese hamster V79 lung fibroblasts; experiment: Radiation survival of aerobic V79 cells, clonogenic assay; assay type: cell-based
Protocol: as §1, §2
Following irradiation, the various cell suspensions were pipetted, counted, diluted, and plated for macroscopic colony formation. Each dose determination was plated in triplicate and experiments were repeated a minimum of two times. Plates were incubated for seven days, after which colonies were fixed with methanol/acetic acid (3:1), stained with crystal violet, and counted. Colonies containing >50 cells were scored and graphed as FIGS. 1-3. Error bars in the graphs represent the standard deviation of the mean and are shown when larger than the symbol used to designate a data point. Survival curve data were fitted using a linear quadratic model of Albright (Radiat. Res., 112, 331-340 (1987)), and the survival curves shown in the figures represent the best fit curves for the experimental data points. Sensitizer enhancement ratios (SER) were calculated by dividing the radiation dose for control hypoxic conditions by the radiation dose for various agents under hypoxic conditions at the 1% surviving fraction level.

[3] = tested on: KHT tumors; experiment: In vivo radiosensitization of KHT tumors (regrowth delay); set-up: species or system C3H mice
Protocol: This murine model is one which is routinely used to test hypoxic radiosensitizers. In fact, results obtained with this model were used as a basis for initiating clinical trials of nitroimidazoles as radiation sensitizers in the early to mid-1970's.
C3H mice with hind leg implants of KHT tumors were exposed to radiation. When the tumors had grown to 8 mm in circumference, the mice were treated with DEA/NO alone (control), 15 cGy directed at the tumor, or DEA/NO given 30 minutes before tumor irradiation with 15 cGy (DEA/NO (30 min)). The mice experienced a tumor regrowth delay of one day after treatment of the tumor with 15 cGy.

[4] = tested on: C3H mice; experiment: Protection of mice from whole body irradiation; assay type: in vivo; conditions: for Percent survival of mice at 30 days: 1100 cGy
Text: Female C3H mice were obtained from the Frederick Cancer Research Center--Animal Production in Frederick, Md. C3H mice have been used in whole body irradiation studies since 1948 (Patt, et al., Science, 110, 213-214 (1949)) and are considered to serve as good models for predicting the effects of radiation in humans.
C3H mice were received at six weeks of age and were housed five per cage in climate-controlled, circadian rhythm-adjusted rooms and allowed food and water ad libitum. The animals were 60-80 days old at the time of radiation. A total of 10-15 mice were used per radiation dose. Mice were weighed in groups of five. The weights of each group ranged from 110 grams to 135 grams or an average weight of 22-27 grams per mouse.
In all experiments drugs and diluent (in control mice) were injected intraperitoneally into mice in volumes equivalent to 1% of each animal's weight (0.22 to 0.27 ml). Groups of 5-10 mice were placed in round (30.5 cm diameter and 10.5 cm height) Plexiglas containers with holes for ventilation for irradiation. The irradiator was calibrated with thermoluminescent dosimetry chips planted in phantom mice, and the radiation dose was determined according to previously described methodology (Cameron et al., "Thermoluminescent Dosimetry" (Univ. of Wisconsin Press, Madison, Wis., 1968)). The dose rate used was 1 Gy/min. Total time of irradiation varied as a function of the dose delivered. Immediately after irradiation, the mice were separated into groups of five and returned to climate-controlled cages for observation. The mice were assessed daily for survival.
The results are shown in FIG. 7, which is a graph of percent surviving versus days after irradiation with 11 Gy for control mice (.box-solid., n=10), which were injected with saline, mice treated with DEA/NO 10 minutes prior to irradiation (.largecircle., n=15), and mice treated with DEA/NO 30 minutes prior to irradiation (.circle-solid., n=15).

[5] = tested on: Female C3H mice; experiment: Protection of mice against melphalan toxicity; assay type: in vivo; conditions: 70 mg/kg DEA/NO, i.p.
Protocol: Female C3H mice were injected intraperitoneally with varying doses of melphalan alone or melphalan with 70 mg/kg DEA/NO. The methods employed were adaptations of the methods used in Examples 9 and 11.
FIG. 16 is a graph of % survival of animals versus does of melphalan (mg/kg) showing the chemotherapy survival curves for mice exposed to melphalan in the absence or presence of DEA/NO. […] DEA/NO provided approximately a 1.2 protection factor at the 50% survival level.

[6] = tested on: Chinese hamster V79 lung fibroblasts; experiment: Radiation survival of hypoxic V79 cells (metabolism-mediated oxygen depletion), clonogenic assay, SER; assay type: cell-based; conditions: 0.05 mM, 1% surviving fraction level
[7] = tested on: C3H mice; experiment: Protection of mice from whole body irradiation; assay type: in vivo
[8] = tested on: Chinese hamster V79 fibroblasts; experiment: Chemosensitization of V79 cells to bioreductive agents (mitomycin C, SR 4233)

CCN(CC)/[N+]([O-])=N/[O-].[Na+] [DEA/NO]
cytotoxicity of treatment alone ([1]; 2 mM): minimal cytotoxicity
cytotoxicity of treatment alone ([1]; 0.1-1.0 mM): not cytotoxic
enhancement of aerobic radiosensitivity at the 1% survival level ([2]; 2.0 mM): 1.3
effect on aerobic radiosensitivity ([2]; 0.5 and 1.0 mM): had no effect on aerobic radiosensitivity
tumor regrowth delay ([3]; 80 mg/kg 30 min before 15 cGy tumor irradiation): 8 days
survival with no evidence of tumor ([3]; DEA/NO (30 min) group, 15 cGy): Two animals in the DEA/NO (30 min) group survived for at least four weeks with no evidence of tumor
tumors eradicated ([3]; DEA/NO before 15 cGy, n=14): 14%
protection from whole body irradiation ([4]; 80 mg/kg i.p. before irradiation): protected mice from whole-body irradiation
Percent survival of mice at 30 days ([4]; 80 mg/kg i.p. 10 min before): 44%
Percent survival of mice at 30 days ([4]; 80 mg/kg i.p. 30 min before): 60%
protection against the effects of melphalan [5]: protected the mice against the effects of melphalan
protection factor at the 50% survival level ([5]; varying melphalan doses): ~1.2
SER [6]: 1.0
Percent survival of mice at 30 days ([7]; 700 cGy, 80 mg/kg i.p. 10 min before): 100%
Percent survival of mice at 30 days ([7]; 700 cGy, 80 mg/kg i.p. 30 min before): 100%
Percent survival of mice at 30 days ([7]; 800 cGy, 80 mg/kg i.p. 10 min before): 100%
Percent survival of mice at 30 days ([7]; 800 cGy, 80 mg/kg i.p. 30 min before): 90%
Percent survival of mice at 30 days ([7]; 900 cGy, 80 mg/kg i.p. 10 min before): 77%
Percent survival of mice at 30 days ([7]; 900 cGy, 80 mg/kg i.p. 30 min before): 80%
Percent survival of mice at 30 days ([7]; 1000 cGy, 80 mg/kg i.p. 10 min before): 44%
Percent survival of mice at 30 days ([7]; 1000 cGy, 80 mg/kg i.p. 30 min before): 10%
enhancement of hypoxic cytotoxicity of SR 4233 ([8]; 25 μm SR 4233, 1 mM, hypoxic, 1 hr): enhance the hypoxic cytotoxicity of SR 4233
enhancement of mitomycin C cytotoxicity ([8]; aerobic and hypoxic conditions): enhanced cytotoxicity under both aerobic and hypoxic conditions

Source: patent publication US5650442A (priority 1994, dated 1997)
